From patent US10166271B2, “Methods for promoting hair growth” (THE REGENTS OF THE UNIVERSITY OF CALIFORNIA, priority 2006, dated 2019)

Key:
young CRF-OE mice = settings: young CRF-OE mice; over a two-month period
Procedure: Each subcutaneous injection is given in a single puncture located along or about the midline of the back. Age-matched CRF-OE mice similarly injected with 0.1 ml vehicle alone are used as negative controls. Astressin B fragments are as described in Example 8. Alternatively, topical astressin B can be applied to the mouse's back, for example 0.05 mg, 0.5 mg, 5 mg, 50 mg, or 500 mg of an astressin B fragment once daily for at least five consecutive days
Hair growth (or hair loss) is assessed using the hair growth scale described in Example 1. The general conditions of treated and control mice, such as weight, back skin thickness, hair luster, skin wounds and indurations, are noted.

CRF-OE mice = assay type: in vivo; settings: for Treated mice that died / did not survive / Hair growth: adult female CRF-OE mice; for Treated mice that died / did not survive: groups of five, minoxidil: a few days after the first injection, NBI 27914: within four weeks following the final injection; for Hair growth: 2 and 4 weeks (minoxidil) or four weeks (NBI 27914, surviving mouse) after the final injection
Text: The NBI 27914 administration regimen was as previously described by Martinez et al. (J. Pharmacol. Exp. Ther., 301:611-617, 2002).

[1] = tested on: male patients between 18 and 41 years of age; post-menopausal women; settings: cited from earlier work
[2] = tested on: male and female androgenetic patients; settings: cited from earlier work
[3] = oral 1 mg/day for 2 years, male patients 18-41 years

Row | SMILES | Loss of hair compared with astressin B-treated mice (young CRF-OE mice) | Treated mice that died / did not survive (CRF-OE mice) | Hair growth (CRF-OE mice) | Side effects ([1]; human, in vivo) | Cases in which further hair loss was prevented [1, 3] | Cases with visible hair growth [1, 3] | Efficacy of similar treatment regimen ([1]; post-menopausal women) | Treated mice with induced patches of pigmentation (CRF-OE mice; sc 1% in 0.1 ml once per day x 10 days, by two weeks after the final injection, still-living mice) | Side effects ([2]; human, in vivo) | Patients with fine hair growth (fraction) ([2]; two percent topical) | Patients with no hair growth (fraction) ([2]; two percent topical) | Patients with visible hair growth (fraction) ([2]; two percent topical)
1 | CCCN(CC1CC1)c1nc(C)nc(Nc2c(Cl)cc(Cl)cc2Cl)c1Cl [NBI 27914] | substantially more loss of hair | 4 out of 5 | small areas of patchy hair growth | – | – | – | – | – | – | – | – | –
2 | CC(C)(C)NC(=O)[C@H]1CC[C@H]2[C@@H]3CC[C@H]4NC(=O)C=C[C@]4(C)[C@H]3CC[C@]12C [finasteride] | – | – | – | lack of libido, lack of potency, and mild reduction in semen | 83% | 66% | ineffective | – | – | – | – | –
3 | Nc1cc(N2CCCCC2)nc(N)[n+]1[O-] [minoxidil] | substantially more loss of hair | one treated mouse died | Moderate hair growth in the pigmented patches | – | – | – | – | 3 of the 4 | scalp irritation and increased facial hair | approximately ⅓ | approximately ⅓ | approximately ⅓
